What all share (format): cell-based
Experiment [1] concerns HepG2 cells. In words: Palmitate-driven respiration in intact HepG2 cells (Seahorse). The procedure: (§1) All respirometry studies were conducted in either a Seahorse XF96 or XFe96 Analyzer. All experiments were conducted at 37° C., and at pH 7.4 (intact cells) or 7.2 (permeabilized cells and isolated mitochondria). Calculation of respiratory parameters was made according to standard protocols (Divakaruni, A. S., Paradyse, A., Ferrick, D. A., Murphy, A. N., and Jastroch, M. (2014a) Analysis and interpretation of microplate-based oxygen consumption and pH data. Meth. Enzym 547, 509-54), and all rates were corrected for non-mitochondrial respiration/background signal by subtracting the oxygen consumption rate insensitive to rotenone plus antimycin A.
Palmitate oxidation in intact cells (FIG. 1A, FIG. 1B) was assessed by measuring palmitate-driven respiration that was sensitive to low concentrations of etomoxir (Rogers, G. W., Nadanaciva, S., Swiss, R., Divakaruni, A. S., and Will, Y. (2014) Assessment of fatty acid beta oxidation in cells and isolated mitochondria. Curr. Protoc. Toxicol. 60, 25.3, 1-19). […] Respiration was measured under basal conditions as well as after injection of 2 μM oligomycin, two sequential additions of 1 μM FCCP, followed by 0.2 μM rotenone with 1 μM antimycin A. Etomoxir was added to the assay medium 30 min. prior to measurements of basal respiratory rates.

The subject of experiment [2] is 3T3-L1 adipocytes. In words: Maximal respiration in 3T3-L1 adipocytes (positive control). Particulars: 3 μM etomoxir. The procedure:
as §1
Detailed description of FIG. 5. (FIG. 5A) Maximal FCCP-stimulated respiration in response to 3 μM etomoxir in six cell types (experimental conditions in Materials and Methods). […] (n≥3 independent biological replicates). (FIG. 5B) (Left) Maximal respiration in HepG2 cells offered 8 mM glucose, 2 mM glutamine, and 2 mM pyruvate in the experimental medium with BPTES and UK5099 (both at 3 μM)±3 μM etomoxir. (n=4 independent biological replicates). (Right) Maximal respiration in 3T3-L1 adipocytes offered 1 mM glucose and 0.5 mM carnitine in the experimental medium with increasing concentrations of etomoxir. (n=3 independent biological replicates). […]

For experiment [3], the target named is T1, CPT-1 (Mus musculus, UniProt P97742).
T1 construct: endogenous in cells; host or cells: mouse bone marrow-derived macrophages (BMDMs)
T1 sequence (P97742 1-773): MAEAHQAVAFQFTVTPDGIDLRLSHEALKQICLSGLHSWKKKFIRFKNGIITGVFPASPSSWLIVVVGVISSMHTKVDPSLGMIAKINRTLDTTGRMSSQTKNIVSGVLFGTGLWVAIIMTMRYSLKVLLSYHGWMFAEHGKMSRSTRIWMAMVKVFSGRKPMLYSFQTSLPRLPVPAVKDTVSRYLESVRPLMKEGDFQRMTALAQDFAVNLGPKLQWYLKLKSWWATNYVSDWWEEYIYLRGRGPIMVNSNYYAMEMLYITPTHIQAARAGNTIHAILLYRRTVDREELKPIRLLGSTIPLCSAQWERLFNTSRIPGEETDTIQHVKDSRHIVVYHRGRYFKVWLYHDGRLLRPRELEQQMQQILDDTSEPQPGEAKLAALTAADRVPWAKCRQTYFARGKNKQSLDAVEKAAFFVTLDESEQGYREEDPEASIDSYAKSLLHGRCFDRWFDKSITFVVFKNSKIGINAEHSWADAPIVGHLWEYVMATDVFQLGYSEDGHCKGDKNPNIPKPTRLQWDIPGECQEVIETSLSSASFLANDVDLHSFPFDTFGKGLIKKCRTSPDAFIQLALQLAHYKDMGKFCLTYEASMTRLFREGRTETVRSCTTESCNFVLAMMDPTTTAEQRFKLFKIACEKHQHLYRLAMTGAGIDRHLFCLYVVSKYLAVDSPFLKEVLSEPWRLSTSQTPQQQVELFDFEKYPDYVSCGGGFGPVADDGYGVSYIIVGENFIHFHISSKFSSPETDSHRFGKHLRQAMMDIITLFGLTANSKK
As to the kind of experiment: Palmitoyl CoA-driven respiration in permeabilized BMDMs.

In the case of `CCOC(=O)[C@@]1(CCCCCCOc2ccc(Cl)cc2)CO1` [etomoxir], the FCCP-stimulated respiration entry in experiment [1] (1 μM etomoxir) is “largely sensitive”. For the same compound, the “half-maximal inhibitory concentration (EC50) for uncoupler-stimulated respiration” value in experiment [1] (intact HepG2, albumin-buffered palmitate) is recorded as “sub-micromolar”. The respiration entry in experiment [2] is recorded as “sufficient to inhibit respiration”. The “sensitivity of respiration to 3 μM etomoxir” value in experiment [3] (conditional CPT KO BMDMs) is “largely absent”. Besides, in experiment [3] (permeabilized BMDMs), the “EC50, FCCP-stimulated palmitoyl CoA-driven respiration” value is reported as “nanomolar” and the “concentration of saturable effect” value is “less than 3 μM”.

The record behind these values is US11813277B2, “Methods and agents for modulating inflammation” (The Regents of the University of California, priority 2018, dated 2023).
